# In ChEMBL document CHEMBL1201862, “PubChem BioAssay data set” (2004):
# The source made the active and inactive calls.
# Experiments:
# [1] = target: Beta-adrenergic receptor kinase 1 (Homo sapiens, UniProt P25098); test: blockers of aptamer binding to GRK2 – biochemical, flow cytometry beads, FAM-aptamer, powder set 1, dose response (AID 588720)
# [2] = target: T1, Carboxy-terminal domain RNA polymerase II polypeptide A small phosphatase 1 (Homo sapiens, UniProt Q9GZU7); test: CTDSP1 inhibitors, concentration-response, biochemical, absorbance readout, ultra-high-throughput screen actives (AID 540297); type: functional
# T1 sequence (Q9GZU7 whole entry): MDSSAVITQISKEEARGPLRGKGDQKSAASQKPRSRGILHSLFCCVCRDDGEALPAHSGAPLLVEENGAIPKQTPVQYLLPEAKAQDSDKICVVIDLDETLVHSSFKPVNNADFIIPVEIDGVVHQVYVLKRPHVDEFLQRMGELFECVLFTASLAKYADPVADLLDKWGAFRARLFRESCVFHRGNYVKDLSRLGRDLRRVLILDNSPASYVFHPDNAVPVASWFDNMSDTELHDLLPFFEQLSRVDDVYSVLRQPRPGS
# [3] = viability of uninfected HEp-2 cells – cell-based, HTS, cytotoxicity control for RSV inhibitor project, dose response (AID 2410); type: functional; conditions: human respiratory syncytial virus
# [4] = Luminescence Cell-Based Dose Retest to Confirm Inhibitors of Cancer Stem Cells. [Related pubchem assays (depositor defined):AID2717, AID2721]; type: functional; conditions: Homo sapiens
# [5] = viability loss of HMLE_sh_eGFP cells – cell-based, luminescence, counter-screen for HMLE_sh_ECad selective toxicity project, dose response (AID 463074); type: functional, Homo sapiens;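 note: HMLE human mammary epithelial cells expressing control shRNA against eGFP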
# Cytochrome P450 2C19 = Cytochrome P450 2C19 (Homo sapiens, UniProt P33261); test: Cytochrome panel assay with activity outcomes. Panel member name: p450-cyp2c19 Compounds with AC50 equal or less than 10 uM are considered active; type: functional; conditions: read-out: AC50
# Cytochrome P450 2D6 = Cytochrome P450 2D6 (Homo sapiens, UniProt P10635);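 note: CYP2D6 member of a cytochrome P450 panel assay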
# Cytochrome P450 2C9 = Cytochrome P450 2C9 (Homo sapiens, UniProt P11712)
# [6] = target: T2, RNA-binding protein pos-1 (Caenorhabditis elegans, UniProt G5EF15); test: disruptors of C. elegans POS-1 RNA interaction – biochemical, fluorescence polarization, dose response (AID 1964);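 note: purified POS-1 fused to maltose binding protein made in E. coli; potency of compounds blocking POS-1 binding to fluorescent RNA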
# T2 sequence (G5EF15 whole entry): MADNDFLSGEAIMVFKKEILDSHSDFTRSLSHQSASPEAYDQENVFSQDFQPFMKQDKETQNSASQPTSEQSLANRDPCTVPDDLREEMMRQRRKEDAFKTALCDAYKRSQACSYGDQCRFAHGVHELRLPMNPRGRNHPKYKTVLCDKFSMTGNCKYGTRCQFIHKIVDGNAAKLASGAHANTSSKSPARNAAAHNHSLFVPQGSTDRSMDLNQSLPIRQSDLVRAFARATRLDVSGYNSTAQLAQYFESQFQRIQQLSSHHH
# [7] = target: T3, Zinc finger protein mex-5 (Caenorhabditis elegans, UniProt Q9XUB2); test: potency of MEX-5 RNA-binding blockers – biochemical, C. elegans, fluorescence polarization, dose response (AID 1960)
# T3 sequence (Q9XUB2 whole entry): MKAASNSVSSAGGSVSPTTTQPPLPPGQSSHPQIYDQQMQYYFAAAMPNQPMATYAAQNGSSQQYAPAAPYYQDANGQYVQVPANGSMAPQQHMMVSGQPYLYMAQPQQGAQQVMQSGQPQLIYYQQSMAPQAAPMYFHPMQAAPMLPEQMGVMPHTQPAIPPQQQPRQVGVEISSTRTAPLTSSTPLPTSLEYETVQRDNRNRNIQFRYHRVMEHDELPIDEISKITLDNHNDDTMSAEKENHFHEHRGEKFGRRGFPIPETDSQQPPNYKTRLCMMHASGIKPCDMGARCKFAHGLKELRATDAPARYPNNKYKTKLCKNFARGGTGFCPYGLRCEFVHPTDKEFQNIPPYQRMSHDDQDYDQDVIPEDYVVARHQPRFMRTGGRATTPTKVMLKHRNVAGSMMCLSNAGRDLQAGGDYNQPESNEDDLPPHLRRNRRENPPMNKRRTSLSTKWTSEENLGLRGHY
# [8] = target: UDP-galactopyranose mutase (Mycobacterium tuberculosis, UniProt P9WIQ1); test: Inhibitors of Mycobacterium tuberculosis UDP-galactopyranose mutase (UGM) enzyme Measured in Biochemical System Using Plate Reader - 2105-02_Inhibitor_Dose_CherryPick_Activity. [Related pubchem assays (depositor defined):AID504439]
# Cytochrome P450 1A2 = target: T4, Cytochrome P450 1A2 (Homo sapiens, UniProt P05177);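 note: PubChem cytochrome P450 panel assay, CYP1A2 panel member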
# T4 sequence (P05177 whole entry): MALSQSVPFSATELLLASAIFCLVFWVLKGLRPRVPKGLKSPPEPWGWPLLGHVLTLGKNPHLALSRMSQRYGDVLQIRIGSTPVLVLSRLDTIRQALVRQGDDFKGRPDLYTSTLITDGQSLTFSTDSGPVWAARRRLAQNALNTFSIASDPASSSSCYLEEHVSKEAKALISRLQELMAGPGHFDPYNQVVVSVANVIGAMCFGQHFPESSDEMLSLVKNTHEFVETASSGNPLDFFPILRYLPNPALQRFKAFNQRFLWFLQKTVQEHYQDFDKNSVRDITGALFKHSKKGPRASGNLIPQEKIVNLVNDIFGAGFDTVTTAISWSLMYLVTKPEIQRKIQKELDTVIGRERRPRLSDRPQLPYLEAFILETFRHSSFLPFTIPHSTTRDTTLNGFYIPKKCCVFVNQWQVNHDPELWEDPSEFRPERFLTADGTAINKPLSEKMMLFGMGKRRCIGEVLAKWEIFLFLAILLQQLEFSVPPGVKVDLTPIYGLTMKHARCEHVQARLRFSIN
# [9] = target: Glucose-6-phosphate 1-dehydrogenase (Homo sapiens, UniProt P11413); test: inhibition of Homo sapiens G6PD, dose series – biochemical, fluorescence, selectivity assay for P. falciparum G6PD inhibitor project, dose response (AID 504792); type: functional
# HeLa = test: viability loss in HeLa cells – cell-based, 24 h, cherry-picked samples, cytotoxicity control, dose response (AID 504726); type: functional; conditions: Homo sapiens;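 note: potency for cytotoxicity as loss of luminescence signal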
# ORF 73 = ORF 73 (Human herpesvirus 8, UniProt O40947); test: KSHV LANA DNA-binding disruption – biochemical, fluorescence polarization, cherry-picked samples, dose response (AID 504725); parameters: species or system Human gammaherpesvirus 8;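 note: fluorescence polarization of a labeled DNA duplex reporting LANA DNA binding; potency is for inhibitors that block LANA binding to the DNA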
# Keap1/Nrf2 = Keap1/Nrf2 (Homo sapiens, UniProt Q14145); test: disruptors of Keap1 binding to Nrf2 peptide – biochemical, fluorescence polarization, cherry-picked samples, dose response (AID 588683)
# Genome polyprotein = Genome polyprotein (dengue virus type 2, UniProt P29990); test: flavivirus cap methylation enzyme inhibition – biochemical, confirmation dose response, primary screen (AID 588689); type: functional
# [10] = target: T5, Small ubiquitin-related modifier 1 (Homo sapiens, UniProt P63165); test: SUMO1 protein interaction blockers, potency – biochemical, fluorescence polarization, uHTS hits, dose response (AID 624382); type: functional; conditions: read-out: IC50_Mean
# [11] = target: T5, Small ubiquitin-related modifier 1; test: SUMO1 protein-protein binding blockers, potency – biochemical, FRET, dose response (AID 624383); type: functional; conditions: read-out: IC50_Mean
# [12] = target: T6, Rac GTPase-activating protein 1 (Homo sapiens, UniProt Q9H0H5); test: blockers of MgcRacGAP-driven Rac1 GTP hydrolysis – biochemical, ADP Hunter fluorescence, primary and confirmatory, confirmation (AID 624330); type: functional
# T6 sequence (Q9H0H5 whole entry): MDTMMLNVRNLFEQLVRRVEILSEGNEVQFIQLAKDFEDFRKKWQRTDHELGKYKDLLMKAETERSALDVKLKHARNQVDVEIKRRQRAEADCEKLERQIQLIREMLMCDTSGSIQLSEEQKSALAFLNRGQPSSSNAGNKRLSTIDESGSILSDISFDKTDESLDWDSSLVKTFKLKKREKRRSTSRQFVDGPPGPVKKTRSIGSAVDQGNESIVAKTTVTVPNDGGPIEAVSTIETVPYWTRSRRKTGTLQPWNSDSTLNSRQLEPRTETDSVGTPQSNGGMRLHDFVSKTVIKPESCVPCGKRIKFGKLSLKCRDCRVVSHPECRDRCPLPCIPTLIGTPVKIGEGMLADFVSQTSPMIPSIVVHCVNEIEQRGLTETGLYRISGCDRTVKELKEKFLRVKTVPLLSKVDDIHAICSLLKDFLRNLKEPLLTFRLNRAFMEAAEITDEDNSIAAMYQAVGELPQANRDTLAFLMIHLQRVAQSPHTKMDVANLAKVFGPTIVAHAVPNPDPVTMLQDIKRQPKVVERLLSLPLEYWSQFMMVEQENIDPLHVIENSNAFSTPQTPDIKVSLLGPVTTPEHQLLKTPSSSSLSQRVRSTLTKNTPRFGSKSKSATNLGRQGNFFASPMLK
# [13] = target: T7, Histone-lysine N-methyltransferase NSD2 (Homo sapiens, UniProt O96028); type: biochemical
# T7 sequence (O96028 whole entry): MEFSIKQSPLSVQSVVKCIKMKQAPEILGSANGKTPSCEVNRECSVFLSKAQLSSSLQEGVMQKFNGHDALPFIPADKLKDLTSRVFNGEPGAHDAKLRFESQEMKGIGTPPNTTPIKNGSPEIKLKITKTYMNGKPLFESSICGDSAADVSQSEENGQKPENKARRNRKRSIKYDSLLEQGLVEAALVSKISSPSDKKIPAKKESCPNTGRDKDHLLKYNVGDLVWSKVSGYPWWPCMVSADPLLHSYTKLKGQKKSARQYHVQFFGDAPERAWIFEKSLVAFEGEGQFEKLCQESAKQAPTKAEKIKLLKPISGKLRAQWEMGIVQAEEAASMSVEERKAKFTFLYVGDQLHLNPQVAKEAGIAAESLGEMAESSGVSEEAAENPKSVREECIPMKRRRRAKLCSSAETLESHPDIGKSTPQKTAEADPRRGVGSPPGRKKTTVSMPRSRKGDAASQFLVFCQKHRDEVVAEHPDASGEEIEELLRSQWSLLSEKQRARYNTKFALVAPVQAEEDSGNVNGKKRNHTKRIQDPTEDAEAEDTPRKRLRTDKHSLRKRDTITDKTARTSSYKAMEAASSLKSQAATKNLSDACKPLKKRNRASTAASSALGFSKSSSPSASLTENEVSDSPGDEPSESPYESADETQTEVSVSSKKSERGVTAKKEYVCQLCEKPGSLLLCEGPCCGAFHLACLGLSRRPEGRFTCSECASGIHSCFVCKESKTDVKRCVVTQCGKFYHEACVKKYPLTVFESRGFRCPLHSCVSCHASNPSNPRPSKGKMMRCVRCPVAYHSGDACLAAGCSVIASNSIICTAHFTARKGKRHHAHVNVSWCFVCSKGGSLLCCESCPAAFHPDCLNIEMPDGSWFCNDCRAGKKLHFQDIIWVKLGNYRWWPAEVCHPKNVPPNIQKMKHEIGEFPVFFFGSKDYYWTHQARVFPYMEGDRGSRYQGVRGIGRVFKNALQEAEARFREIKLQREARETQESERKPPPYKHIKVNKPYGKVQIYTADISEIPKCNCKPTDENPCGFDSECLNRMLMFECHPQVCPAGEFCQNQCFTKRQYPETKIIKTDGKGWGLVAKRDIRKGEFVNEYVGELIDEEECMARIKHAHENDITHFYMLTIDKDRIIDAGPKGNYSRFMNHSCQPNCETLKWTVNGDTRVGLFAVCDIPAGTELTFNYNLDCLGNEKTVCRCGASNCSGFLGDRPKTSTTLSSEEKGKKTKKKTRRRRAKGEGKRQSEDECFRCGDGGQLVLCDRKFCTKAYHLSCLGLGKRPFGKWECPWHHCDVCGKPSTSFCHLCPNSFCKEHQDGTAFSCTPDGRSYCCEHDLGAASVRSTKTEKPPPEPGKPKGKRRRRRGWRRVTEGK
# ELAV-like protein 1 = ELAV-like protein 1 (Homo sapiens, UniProt Q15717); test: Identify HuR specific inhibitors.; type: functional
# [14] = target: RNA-editing ligase 1, mitochondrial (Trypanosoma brucei brucei, UniProt P86926); test: inhibition of trypanosome RNA editing ligase – biochemical, fluorescence, Trypanosoma brucei, dose response (AID 1117295); type: functional
# Sequence of RNA-editing ligase 1, mitochondrial (P86926 whole entry): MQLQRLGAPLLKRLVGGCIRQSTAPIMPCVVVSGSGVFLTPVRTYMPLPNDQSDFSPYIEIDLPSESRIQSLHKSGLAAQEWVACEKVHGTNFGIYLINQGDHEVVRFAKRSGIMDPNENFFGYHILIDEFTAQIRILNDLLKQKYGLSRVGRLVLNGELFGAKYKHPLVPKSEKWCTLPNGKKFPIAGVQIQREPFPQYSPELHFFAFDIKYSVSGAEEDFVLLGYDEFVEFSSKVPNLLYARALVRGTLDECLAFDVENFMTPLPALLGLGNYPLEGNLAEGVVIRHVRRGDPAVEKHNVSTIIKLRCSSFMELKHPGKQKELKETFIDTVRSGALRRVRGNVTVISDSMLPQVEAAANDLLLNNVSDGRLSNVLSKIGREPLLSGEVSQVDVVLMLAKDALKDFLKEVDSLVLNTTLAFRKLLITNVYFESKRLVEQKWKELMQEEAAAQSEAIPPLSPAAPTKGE
# T5 sequence (P63165 whole entry): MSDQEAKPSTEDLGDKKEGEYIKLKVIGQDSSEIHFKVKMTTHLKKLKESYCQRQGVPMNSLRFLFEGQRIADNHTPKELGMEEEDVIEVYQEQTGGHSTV
# Sequence of ORF 73 (O40947 whole entry): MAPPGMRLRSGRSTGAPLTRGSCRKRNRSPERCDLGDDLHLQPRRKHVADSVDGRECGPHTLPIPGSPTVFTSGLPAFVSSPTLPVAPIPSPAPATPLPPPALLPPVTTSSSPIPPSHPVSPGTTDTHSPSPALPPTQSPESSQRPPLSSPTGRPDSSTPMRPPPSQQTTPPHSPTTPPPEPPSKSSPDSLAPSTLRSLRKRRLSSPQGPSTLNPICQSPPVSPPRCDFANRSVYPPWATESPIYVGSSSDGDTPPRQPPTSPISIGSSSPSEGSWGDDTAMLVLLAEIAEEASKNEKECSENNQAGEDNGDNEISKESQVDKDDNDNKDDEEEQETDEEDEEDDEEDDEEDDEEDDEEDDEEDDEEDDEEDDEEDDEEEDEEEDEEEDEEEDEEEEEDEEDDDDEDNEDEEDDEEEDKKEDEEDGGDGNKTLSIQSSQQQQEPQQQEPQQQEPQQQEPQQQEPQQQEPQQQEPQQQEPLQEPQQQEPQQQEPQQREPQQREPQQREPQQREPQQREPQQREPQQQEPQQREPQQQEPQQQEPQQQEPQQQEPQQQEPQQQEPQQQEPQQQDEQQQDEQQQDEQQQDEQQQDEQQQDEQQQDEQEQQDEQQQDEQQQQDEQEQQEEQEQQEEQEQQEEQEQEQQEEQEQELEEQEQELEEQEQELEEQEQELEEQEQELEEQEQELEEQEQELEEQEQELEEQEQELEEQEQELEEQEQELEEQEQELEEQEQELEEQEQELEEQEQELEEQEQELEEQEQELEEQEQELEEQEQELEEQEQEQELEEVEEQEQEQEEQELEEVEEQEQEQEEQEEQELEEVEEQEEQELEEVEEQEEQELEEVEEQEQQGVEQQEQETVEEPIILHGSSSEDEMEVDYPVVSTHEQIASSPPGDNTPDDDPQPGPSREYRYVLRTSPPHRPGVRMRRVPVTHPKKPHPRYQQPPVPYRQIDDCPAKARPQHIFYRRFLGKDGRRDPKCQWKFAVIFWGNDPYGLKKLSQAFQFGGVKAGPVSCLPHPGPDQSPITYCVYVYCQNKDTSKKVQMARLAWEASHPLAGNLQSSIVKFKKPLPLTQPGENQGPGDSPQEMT
# Sequence of Cytochrome P450 2C19 (P33261 whole entry): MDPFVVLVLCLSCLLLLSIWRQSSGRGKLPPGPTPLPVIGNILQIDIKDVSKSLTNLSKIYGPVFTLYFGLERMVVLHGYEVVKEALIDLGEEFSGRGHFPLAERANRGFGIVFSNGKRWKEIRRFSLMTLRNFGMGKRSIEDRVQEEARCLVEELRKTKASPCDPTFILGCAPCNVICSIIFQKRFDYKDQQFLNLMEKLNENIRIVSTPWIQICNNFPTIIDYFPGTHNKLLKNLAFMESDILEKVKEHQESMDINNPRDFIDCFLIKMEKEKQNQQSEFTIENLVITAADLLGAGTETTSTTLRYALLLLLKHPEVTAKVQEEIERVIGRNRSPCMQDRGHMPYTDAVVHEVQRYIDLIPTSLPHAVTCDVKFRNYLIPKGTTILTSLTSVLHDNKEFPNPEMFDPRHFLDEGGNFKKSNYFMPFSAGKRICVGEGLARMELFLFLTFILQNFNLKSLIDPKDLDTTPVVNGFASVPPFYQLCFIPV
# Sequence of Beta-adrenergic receptor kinase 1 (P25098 whole entry, the tested form may be a part): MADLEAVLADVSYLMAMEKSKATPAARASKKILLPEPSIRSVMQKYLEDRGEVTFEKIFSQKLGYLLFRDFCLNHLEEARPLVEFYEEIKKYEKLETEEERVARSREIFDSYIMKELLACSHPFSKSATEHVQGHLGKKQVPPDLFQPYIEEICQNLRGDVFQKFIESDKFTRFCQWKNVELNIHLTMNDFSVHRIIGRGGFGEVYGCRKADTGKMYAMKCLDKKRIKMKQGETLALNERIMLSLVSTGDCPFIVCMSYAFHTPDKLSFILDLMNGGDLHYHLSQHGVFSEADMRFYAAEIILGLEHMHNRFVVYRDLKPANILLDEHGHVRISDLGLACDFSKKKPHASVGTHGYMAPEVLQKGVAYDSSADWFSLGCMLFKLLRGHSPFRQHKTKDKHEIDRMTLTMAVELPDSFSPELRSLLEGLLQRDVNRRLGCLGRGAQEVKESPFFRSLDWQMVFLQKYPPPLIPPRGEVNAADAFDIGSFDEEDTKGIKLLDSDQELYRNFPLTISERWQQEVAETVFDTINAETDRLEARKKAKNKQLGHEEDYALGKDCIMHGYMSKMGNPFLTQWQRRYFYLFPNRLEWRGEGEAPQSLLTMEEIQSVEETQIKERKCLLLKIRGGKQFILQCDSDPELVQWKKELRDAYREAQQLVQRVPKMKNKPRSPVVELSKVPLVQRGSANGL
# Sequence of Genome polyprotein (P29990 2492-3391 limits assumed): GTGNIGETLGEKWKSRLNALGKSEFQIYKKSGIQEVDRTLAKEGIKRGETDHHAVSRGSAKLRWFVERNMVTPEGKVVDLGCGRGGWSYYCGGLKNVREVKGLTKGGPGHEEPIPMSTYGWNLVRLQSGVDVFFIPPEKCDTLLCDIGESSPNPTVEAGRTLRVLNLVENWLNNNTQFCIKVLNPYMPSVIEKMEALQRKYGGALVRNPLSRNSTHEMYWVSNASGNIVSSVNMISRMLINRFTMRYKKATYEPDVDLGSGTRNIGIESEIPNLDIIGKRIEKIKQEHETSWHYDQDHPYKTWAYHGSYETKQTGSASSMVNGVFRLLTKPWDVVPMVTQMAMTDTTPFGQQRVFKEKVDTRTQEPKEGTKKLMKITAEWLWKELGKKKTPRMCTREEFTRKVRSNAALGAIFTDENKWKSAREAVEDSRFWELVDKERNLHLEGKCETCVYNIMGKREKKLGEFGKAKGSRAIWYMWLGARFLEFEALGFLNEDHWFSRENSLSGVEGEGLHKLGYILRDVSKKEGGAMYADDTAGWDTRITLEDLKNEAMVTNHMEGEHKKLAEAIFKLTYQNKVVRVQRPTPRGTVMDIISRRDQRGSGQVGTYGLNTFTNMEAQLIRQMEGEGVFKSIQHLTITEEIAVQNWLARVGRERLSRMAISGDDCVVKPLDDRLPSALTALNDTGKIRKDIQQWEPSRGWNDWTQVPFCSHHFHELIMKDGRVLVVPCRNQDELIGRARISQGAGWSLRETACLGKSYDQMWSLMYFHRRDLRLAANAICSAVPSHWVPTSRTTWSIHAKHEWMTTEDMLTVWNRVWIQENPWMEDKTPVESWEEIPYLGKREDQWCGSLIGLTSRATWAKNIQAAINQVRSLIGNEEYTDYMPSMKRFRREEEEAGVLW
# Sequence of UDP-galactopyranose mutase (P9WIQ1 whole entry): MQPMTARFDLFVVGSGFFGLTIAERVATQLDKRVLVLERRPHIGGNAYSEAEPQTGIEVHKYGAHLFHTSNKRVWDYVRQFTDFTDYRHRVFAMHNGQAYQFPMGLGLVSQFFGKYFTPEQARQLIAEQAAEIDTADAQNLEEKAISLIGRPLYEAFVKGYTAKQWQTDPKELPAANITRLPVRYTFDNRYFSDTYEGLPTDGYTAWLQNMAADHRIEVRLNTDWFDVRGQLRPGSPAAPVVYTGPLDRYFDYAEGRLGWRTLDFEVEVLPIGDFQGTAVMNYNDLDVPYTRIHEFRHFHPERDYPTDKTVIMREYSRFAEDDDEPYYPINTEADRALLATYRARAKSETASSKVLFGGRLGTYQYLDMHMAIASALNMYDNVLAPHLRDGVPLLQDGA
# Sequence of Cytochrome P450 2C9 (P11712 whole entry, the tested form may be a part): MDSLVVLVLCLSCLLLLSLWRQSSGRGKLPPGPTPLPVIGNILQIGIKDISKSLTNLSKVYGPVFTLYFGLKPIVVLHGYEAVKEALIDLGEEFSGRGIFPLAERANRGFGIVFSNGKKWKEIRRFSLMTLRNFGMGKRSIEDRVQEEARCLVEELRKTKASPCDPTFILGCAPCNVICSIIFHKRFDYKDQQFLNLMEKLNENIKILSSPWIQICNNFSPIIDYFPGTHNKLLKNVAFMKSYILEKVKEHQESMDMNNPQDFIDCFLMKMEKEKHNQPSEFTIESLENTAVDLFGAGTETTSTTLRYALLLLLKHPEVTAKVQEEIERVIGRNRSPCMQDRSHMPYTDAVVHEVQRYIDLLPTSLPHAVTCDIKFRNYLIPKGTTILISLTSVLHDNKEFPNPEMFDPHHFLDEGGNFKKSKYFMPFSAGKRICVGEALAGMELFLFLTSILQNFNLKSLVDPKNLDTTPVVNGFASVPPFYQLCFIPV
# Sequence of ELAV-like protein 1 (Q15717 whole entry): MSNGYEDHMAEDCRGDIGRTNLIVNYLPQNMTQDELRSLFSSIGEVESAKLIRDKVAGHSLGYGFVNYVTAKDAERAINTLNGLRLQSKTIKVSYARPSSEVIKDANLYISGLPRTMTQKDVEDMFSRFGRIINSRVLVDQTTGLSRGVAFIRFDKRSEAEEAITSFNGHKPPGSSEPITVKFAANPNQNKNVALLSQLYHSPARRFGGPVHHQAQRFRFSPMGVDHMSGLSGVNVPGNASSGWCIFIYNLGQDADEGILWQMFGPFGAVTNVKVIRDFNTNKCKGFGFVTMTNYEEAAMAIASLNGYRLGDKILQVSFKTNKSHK
smiles,measurement,setting,value
O=C(CCS(=O)(=O)c1ccc(Br)cc1)Nc1cc(F)ccc1F,EC50,[1],2.47 µM (active)
same,IC50,[2],7.86 µM (active)
O=C(Nc1cccc2ccccc12)c1nn(C23CC4CC(CC(C4)C2)C3)cc1Br,CC50,[3],27.8 µM (active)
same,AC50,[4],1.83 µM (active)
same,AC50,[5],40.6 µM (active)
same,AC50,Cytochrome P450 2C19,2.24 µM (inconclusive)
same,AC50,Cytochrome P450 2D6,inconclusive
same,AC50,Cytochrome P450 2C9,inconclusive
O=C1c2cccc3c(N4CCCCC4)ccc(c23)C(=O)N1c1ccccn1,EC50,[6],> 300 µM (inconclusive)
same,EC50,[7],5.26 µM (inconclusive)
same,AC50,[8],58.7 µM (active)
O=C(c1cnccn1)N1CCC2(CCN(Cc3cc(C(F)(F)F)cc(C(F)(F)F)c3)CC2)CC1,AC50,Cytochrome P450 1A2,inactive
O=C(O)c1cc(N2C(=O)C=CC2=O)cc(N2C(=O)C=CC2=O)c1,IC50,[9],61.8 µM (inactive)
same,AC50,HeLa,> 350 µM (inactive)
same,AC50,ORF 73,94.5 µM (active)
same,AC50,Keap1/Nrf2,19 µM (active)
same,IC50,Genome polyprotein,19.6 µM (active)
same,IC50,[10],> 66.6 µM (inactive)
same,IC50,[11],13.7 µM (active)
same,IC50,[12],19.7 µM (active)
same,AC50,[13],6.9 µM (active)
same,IC50,ELAV-like protein 1,26.9 µM (inactive)
same,IC50,[14],12.3 µM (inactive)
